We go through 29 molecules from US8293901B2, “MAPK/ERK kinase inhibitors” (Takeda Pharmaceutical Company Limited, priority 2006, dated 2012).

As a reminder, the IC50 is the concentration that inhibits the measured activity by half.

For the assay, the target named is MEK1 (Homo sapiens, UniProt Q02750, DEL33-52/S218E/S222D). Description: MEK1 inhibition, ERK1/FI-Erktide fluorescence polarization assay with IMAP beads. On the technique in general: Polarisation of emitted light reports the rotation of a fluorescent probe.
Sequence of MEK1 (Q02750 with tags, fused parts or gaps DEL33-52/S218E/S222D): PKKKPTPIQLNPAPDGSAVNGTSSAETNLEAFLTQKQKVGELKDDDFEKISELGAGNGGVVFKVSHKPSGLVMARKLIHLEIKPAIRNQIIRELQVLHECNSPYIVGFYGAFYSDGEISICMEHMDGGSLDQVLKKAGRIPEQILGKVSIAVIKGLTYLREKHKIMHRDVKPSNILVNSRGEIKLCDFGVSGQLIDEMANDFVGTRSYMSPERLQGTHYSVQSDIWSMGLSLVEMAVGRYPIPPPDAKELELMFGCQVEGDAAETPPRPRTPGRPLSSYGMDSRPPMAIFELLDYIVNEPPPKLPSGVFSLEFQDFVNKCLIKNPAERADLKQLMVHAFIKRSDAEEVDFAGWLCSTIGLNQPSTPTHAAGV
For the molecule `COC(=O)Cn1cnc2c(c(Nc3ccc(I)cc3F)cc(=O)n2C)c1=O` [Example 3, Methyl 2-(5-(2-fluoro-4-iodophenylamino)-8-methyl-4,7-dioxo-7,8-dihydropyrido[2,3-d]pyrimidin-3(4H)-yl)acetate], the IC50 was at least 16 nM.

As for `Cn1c(=O)c(Cl)c(Nc2ccc(I)cc2F)c2c(=O)n(C[C@H](O)CO)cnc21` [Example 7, (S)-6-Chloro-3-(2,3-dihydroxypropyl)-5-(2-fluoro-4-iodophenylamino)-8-methylpyrido[2,3-d]pyrimidine-4,7(3H,8H)-dione], the IC50 is at most 5 nM. As for `Cc1c(Nc2ccc(Br)cc2F)c2c(=O)n(C[C@H](O)CO)cnc2n(C)c1=O` [Example 9, (S)-5-(4-Bromo-2-fluorophenylamino)-3-(2,3-dihydroxypropyl)-6,8-dimethylpyrido[2,3-d]pyrimidine-4,7(3H,8H)-dione], the figure is at least 16 nM; as for `Cc1c(Nc2ccc(Br)cc2F)c2c(=O)n(C[C@@H](O)CO)cnc2n(C)c1=O` [Example 10, (R)-5-(4-Bromo-2-fluorophenylamino)-3-(2,3-dihydroxypropyl)-6,8-dimethylpyrido[2,3-d]pyrimidine-4,7(3H,8H)-dione], at least 16 nM; as for `Cc1c(Nc2ccc(Br)cc2F)c2c(=O)n(CCO)cnc2n(C)c1=O` [Example 11, 5-(4-Bromo-2-fluorophenylamino)-3-(2-hydroxyethyl)-6,8-dimethylpyrido[2,3-d]pyrimidine-4,7(3H,8H)-dione], at least 16 nM. The molecule `Cc1c(Nc2ccc(I)cc2F)c2c(=O)n(CCO)cnc2n(C)c1=O` [Example 14, 5-(2-Fluoro-4-iodophenylamino)-3-(2-hydroxyethyl)-6,8-dimethylpyrido[2,3-d]pyrimidine-4,7(3H,8H)-dione] returned an IC50 of at most 5 nM. As for `Cc1c(Nc2ccccc2F)c2c(=O)n(CCO)cnc2n(C)c1=O` [Example 15, 5-(2-Fluorophenylamino)-3-(2-hydroxyethyl)-6,8-dimethylpyrido[2,3-d]pyrimidine-4,7(3H,8H)-dione], the figure is at least 16 nM; as for `C#Cc1ccc(Nc2c(C)c(=O)n(C)c3ncn(C[C@@H](O)CO)c(=O)c23)c(F)c1` [Example 16, (R)-3-(2,3-Dihydroxypropyl)-5-(4-ethynyl-2-fluorophenylamino)-6,8-dimethylpyrido[2,3-d]pyrimidine-4,7(3H,8H)-dione], 5 to 15 nM. As for `Cn1c(=O)c(F)c(Nc2ccc(I)cc2F)c2c(=O)n(C[C@@H](O)CO)cnc21` [Example 18, (R)-3-(2,3-Dihydroxypropyl)-6-fluoro-5-(2-fluoro-4-iodophenylamino)-8-methylpyrido[2,3-d]pyrimidine-4,7(3H,8H)-dione], the figure is at most 5 nM; as for `Cn1c(=O)c(F)c(Nc2ccc(I)cc2F)c2c(=O)n(C[C@H](O)CO)cnc21` [Example 19, (S)-3-(2,3-Dihydroxypropyl)-6-fluoro-5-(2-fluoro-4-iodophenylamino)-8-methylpyrido[2,3-d]pyrimidine-4,7(3H,8H)-dione], at most 5 nM. As for `C#Cc1ccc(Nc2c(F)c(=O)n(C)c3ncn(C[C@H](O)CO)c(=O)c23)c(F)c1` [Example 21, (S)-3-(2,3-Dihydroxypropyl)-5-(4-ethynyl-2-fluorophenylamino)-6-fluoro-8-methylpyrido[2,3-d]pyrimidine-4,7(3H,8H)-dione], the figure is 5 to 15 nM; as for `C#Cc1ccc(Nc2c(F)c(=O)n(C)c3ncn(C[C@@H](O)CO)c(=O)c23)c(F)c1` [Example 22, (R)-3-(2,3-dihydroxypropyl)-5-(4-ethynyl-2-fluorophenylamino)-6-fluoro-8-methylpyrido[2,3-d]pyrimidine-4,7(3H,8H)-dione], at most 5 nM. Consider `Cn1c(=O)c(F)c(Nc2ccc(NS(C)(=O)=O)cc2F)c2c(=O)n(C[C@@H](O)CO)cnc21` [Example 23, (R)—N-(4-(3-(2,3-Dihydroxypropyl)-6-fluoro-8-methyl-4,7-dioxo-3,4,7,8-tetrahydropyrido[2,3-d]pyrimidin-5-ylamino)-3-fluorophenyl)methanesulfonamide], for which the IC50 is at least 16 nM. The same measure for `Cn1c(=O)c(F)c(Nc2ccc(I)cc2F)c2c(=O)n(C(CO)CO)cnc21` [Example 25, 3-(1,3-Dihydroxypropan-2-yl)-6-fluoro-5-(2-fluoro-4-iodophenylamino)-8-methylpyrido[2,3-d]pyrimidine-4,7(3H,8H)-dione]: at most 5 nM. Regarding `Cn1c(=O)c(F)c(Nc2ccc(I)cc2F)c2c(=O)n(OC[C@H](O)CO)cnc21` [Example 28, (R)-3-(2,3-Dihydroxypropoxy)-6-fluoro-5-(2-fluoro-4-iodophenylamino)-8-methylpyrido[2,3-d]pyrimidine-4,7(3H,8H)-dione], the IC50 was at most 5 nM. The same measure for `Cn1c(=O)c(Cl)c(Nc2ccc(Br)cc2F)c2c(=O)n(C[C@@H](O)CO)cnc21` [Example 29, (R)-5-(4-Bromo-2-fluorophenylamino)-6-chloro-3-(2,3-dihydroxypropyl)-8-methylpyrido[2,3-d]pyrimidine-4,7(3H,8H)-dione]: 5 to 15 nM; for `Cn1c(=O)c(Cl)c(Nc2ccc(I)cc2F)c2c(=O)n(CCO)cnc21` [Example 30, 6-Chloro-5-(2-fluoro-4-iodophenylamino)-3-(2-hydroxyethyl)-8-methylpyrido[2,3-d]pyrimidine-4,7(3H,8H)-dione]: at most 5 nM. `Cn1c(=O)cc(Nc2ccc(I)cc2F)c2c(=O)n(CCCO)cnc21` [Example 31, 5-(2-Fluoro-4-iodophenylamino)-3-(3-hydroxypropyl)-8-methylpyrido[2,3-d]pyrimidine-4,7(3H,8H)-dione]: the IC50 was at most 5 nM. As for `Cn1c(=O)c(Cl)c(Nc2ccc(I)cc2F)c2c(=O)n(CCCO)cnc21` [Example 32, 6-Chloro-5-(2-fluoro-4-iodophenylamino)-3-(3-hydroxypropyl)-8-methylpyrido[2,3-d]pyrimidine-4,7(3H,8H)-dione], the figure is at most 5 nM; as for `Cn1c(=O)cc(Nc2ccc(Br)cc2F)c2c(=O)n(CCCO)cnc21` [Example 33, 5-(4-Bromo-2-fluorophenylamino)-3-(3-hydroxypropyl)-8-methylpyrido[2,3-d]pyrimidine-4,7(3H,8H)-dione], at least 16 nM. As for `Cn1c(=O)c(Cl)c(Nc2ccc(Br)cc2F)c2c(=O)n(CCCO)cnc21` [Example 34, 5-(4-Bromo-2-fluorophenylamino)-6-chloro-3-(3-hydroxypropyl)-8-methylpyrido[2,3-d]pyrimidine-4,7(3H,8H)-dione], the figure is 5 to 15 nM. The molecule `Cn1c(=O)cc(Nc2ccc(Br)cc2Cl)c2c(=O)n(CCCO)cnc21` [Example 35, 5-(4-Bromo-2-chlorophenylamino)-3-(3-hydroxypropyl)-8-methylpyrido[2,3-d]pyrimidine-4,7(3H,8H)-dione] yielded an IC50 of at least 16 nM. In turn, `Cn1c(=O)c(Cl)c(Nc2ccc(Br)cc2Cl)c2c(=O)n(CCCO)cnc21` [Example 36, 5-(4-Bromo-2-chlorophenylamino)-6-chloro-3-(3-hydroxypropyl)-8-methylpyrido[2,3-d]pyrimidine-4,7(3H,8H)-dione] registered an IC50 of at least 16 nM. In turn, `CN(C)CCn1cnc2c(c(Nc3ccc(I)cc3F)cc(=O)n2C)c1=O` [Example 37, 3-(2-(Dimethylamino)ethyl)-5-(2-fluoro-4-iodophenylamino)-8-methylpyrido[2,3-d]pyrimidine-4,7(3H,8H)-dione] showed an IC50 of at least 16 nM. Molecule `CC(O)Cn1cnc2c(c(Nc3ccc(I)cc3F)cc(=O)n2C)c1=O` (centres unmarked) [Example 38, 5-(2-Fluoro-4-iodophenylamino)-3-(2-hydroxypropyl)-8-methylpyrido[2,3-d]pyrimidine-4,7(3H,8H)-dione] displayed an IC50 of at least 16 nM.

As for `CC(O)Cn1cnc2c(c(Nc3ccc(I)cc3F)c(Cl)c(=O)n2C)c1=O` (centres unmarked) [Example 40, 6-Chloro-5-(2-fluoro-4-iodophenylamino)-3-(2-hydroxypropyl)-8-methylpyrido[2,3-d]pyrimidine-4,7(3H,8H)-dione], the IC50 was in the range of 5 to 15 nM. With `Cn1c(=O)cc(Nc2ccc(I)cc2F)c2c(=O)n(Cc3ccccc3)cnc21` [Example 42, 3-Benzyl-5-(2-fluoro-4-iodophenylamino)-8-methylpyrido[2,3-d]pyrimidine-4,7(3H,8H)-dione], the IC50 is at least 16 nM.

`Cc1c(Nc2ccc(I)cc2F)c2c(=O)n(C(CO)CO)cnc2n(C)c1=O` [Example 43, 3-(1,3-Dihydroxypropan-2-yl)-5-(2-fluoro-4-iodophenylamino)-6,8-dimethylpyrido[2,3-d]pyrimidine-4,7(3H,8H)-dione] had an IC50 of 5 to 15 nM. As for `C#Cc1ccc(Nc2c(C)c(=O)n(C)c3ncn(C[C@H](O)CO)c(=O)c23)c(F)c1` [Example 44, (S)-3-(2,3-Dihydroxypropyl)-5-(4-ethynyl-2-fluorophenylamino)-6,8-dimethylpyrido[2,3-d]pyrimidine-4,7(3H,8H)-dione], the figure is 5 to 15 nM.
